# How the values were obtained:
# nitric oxide synthase = assay: Nitric oxide synthase activity in aortic valve endothelial cell lysates (3H-L-arginine to L-citrulline conversion); format: cell-based, pigs; details: valvular cells treated with pravastatin
# Procedure: To assess nitric oxide synthase activity, the aortic valve endothelial cell lysates were evaluated using an NADPH disphorase reaction. Briefly, each lysate was incubated for 30 minutes in a NOS assay buffer containing ^3H-L-arginine, NADPH (100 mM), tetrahydrobiopterin (1 mM), calmodulin ([…]), and CaCl2 (25 mM). The reaction was quenched with ice cold stop buffer (2 mM EDTA, 20 mM Hepes, pH 5.5). The mixture was passed over a Dowex AG50WX-8 Na form resin and washed with one mL stop buffer. Nitric oxide synthase activity was calculated to be the amount of L-arginine converted to L-citrulline that was inhibited by 1-NAME. A scintillation counter was used to determine the amount of radioactivity.
# [1] = system: cultured porcine aortic valve subendothelial cells; assay: 3H thymidine incorporation assay, serotonin-induced proliferation; format: cell-based
# Procedure: To examine the direct proliferative effects of serotonin, cultured porcine aortic valve subendothelial cells were treated with 1 μM, 100 nM, and 10 nM of serotonin and then tested using a ^3H thymidine incorporation assay.
# rabbit aortic valves = assay: 1% cholesterol diet in rabbits, aortic valve immunostaining (PCNA, osteopontin) and cholesterol levels; format: in vivo, New Zealand rabbits; details: 1% cholesterol diet for 12 weeks
# Procedure: In another experiment, osteopontin expression was evaluated. Osteopontin is a non-collagenous bone matrix protein found to be present in the hypercholesterolemic aortic valves. New Zealand rabbits (n=8) were fed with a 1% cholesterol diet for 12 weeks. Eight control animals were fed a normal chow diet. Aortic valves were cut and foam cells were identified by immunostaining for macrophage antibody. Cell proliferation was assessed by immunostaining for proliferating nuclear antigen (PCNA), and osteopontin (OP) for calcification. Transmission electron microscopy immunogold labeling confirmed osteopontin expression.
smiles,measurement,setting,value
"CC[C@H](C)C(=O)O[C@H]1C[C@H](O)C=C2C=C[C@H](C)[C@H](CC[C@@H](O)C[C@@H](O)CC(=O)O)[C@H]21 [Pravastatin, pravastatin]",nitric oxide synthase activity versus cells treated with serum-free media alone,nitric oxide synthase,about 100 fold
NCCc1c[nH]c2ccc(O)cc12 [serotonin],increase in cell proliferation compared to untreated cells,"[1]; serotonin 1 μM, 100 nM and 10 nM, p<0.001",33 fold
CC(C)CCC[C@@H](C)[C@H]1CC[C@H]2[C@@H]3CC=C4C[C@@H](O)CC[C@]4(C)[C@H]3CC[C@]12C [cholesterol],number of proliferating cells (PCNA) in aortic valves compared to controls,rabbit aortic valves,thousand-fold increase
same,osteopontin expression in the atherosclerotic lesion of the aortic valves,rabbit aortic valves,increased osteopontin expression
CSc1ccc2c(c1)C(N1CCN(C)CC1)Cc1ccccc1S2 (centres unmarked) [methiothepin],effect on serotonin-induced proliferation,[1]; methiothepin 7 nM with serotonin,inhibited the serotonin-induced proliferation

# Reference: patent US20060040885A1, “Bioprosthetic heart valves” (Mayo Foundation for Medical Education and Research, a …, priority 1999, published 2006)
